Key:
LOX IMVI = assay: NCI-60 one-dose SRB screen (Melanoma); format: cell-based; conditions: Homo sapiens, single dose 10 µM, 48 h, read-out: Growth inhibition percent (GI %)
MDA-MB-435 = assay: NCI-60 one-dose SRB screen (Melanoma); format: cell-based; conditions: Homo sapiens, single dose 10 µM, 48 h, read-out: Growth inhibition percent (GI %)
IGROV1 = assay: NCI-60 one-dose SRB screen (Ovarian cancer); format: cell-based; conditions: Homo sapiens, IGROV-1, single dose 10 µM, 48 h, read-out: Growth inhibition percent (GI %)
OVCAR-3 = assay: NCI-60 one-dose SRB screen (Ovarian cancer); format: cell-based; conditions: Homo sapiens, single dose 10 µM, 48 h, read-out: Growth inhibition percent (GI %)
OVCAR-4 = assay: NCI-60 one-dose SRB screen (Ovarian cancer); format: cell-based; conditions: Homo sapiens, single dose 10 µM, 48 h, read-out: Growth inhibition percent (GI %)
OVCAR-5 = assay: NCI-60 one-dose SRB screen (Ovarian cancer); format: cell-based; conditions: Homo sapiens, single dose 10 µM, 48 h, read-out: Growth inhibition percent (GI %)
OVCAR-8 = assay: NCI-60 one-dose SRB screen (Ovarian cancer); format: cell-based; conditions: Homo sapiens, single dose 10 µM, 48 h, read-out: Growth inhibition percent (GI %)
SK-OV-3 = assay: NCI-60 one-dose SRB screen (Ovarian cancer); format: cell-based; conditions: Homo sapiens, single dose 10 µM, 48 h, read-out: Growth inhibition percent (GI %)
BT-549 = assay: NCI-60 one-dose SRB screen (Breast Cancer); format: cell-based; conditions: Homo sapiens, single dose 10 µM, 48 h, read-out: Growth inhibition percent (GI %)
HS 578T = assay: NCI-60 one-dose SRB screen (Breast Cancer); format: cell-based; conditions: Homo sapiens, single dose 10 µM, 48 h, read-out: Growth inhibition percent (GI %)
MCF-7 = assay: NCI-60 one-dose SRB screen (Breast Cancer); format: cell-based; conditions: Homo sapiens, MCF7, single dose 10 µM, 48 h, read-out: Growth inhibition percent (GI %)
MDA-MB-231/ATCC = assay: NCI-60 one-dose SRB screen (Breast Cancer); format: cell-based; conditions: Homo sapiens, single dose 10 µM, 48 h, read-out: Growth inhibition percent (GI %)
MDA-MB-468 = assay: NCI-60 one-dose SRB screen (Breast Cancer); format: cell-based; conditions: Homo sapiens, single dose 10 µM, 48 h, read-out: Growth inhibition percent (GI %)
T-47D = assay: NCI-60 one-dose SRB screen (Breast Cancer); format: cell-based; conditions: Homo sapiens, T47D, single dose 10 µM, 48 h, read-out: Growth inhibition percent (GI %)
NCI/ADR-RES = assay: NCI-60 one-dose SRB screen (Ovarian cancer); format: cell-based; conditions: Homo sapiens, single dose 10 µM, 48 h, read-out: Growth inhibition percent (GI %)

Compound | inhibition at 10 µM (LOX IMVI) [%] | inhibition at 10 µM (MDA-MB-435) [%] | inhibition at 10 µM (IGROV1) [%] | inhibition at 10 µM (OVCAR-3) [%] | inhibition at 10 µM (OVCAR-4) [%] | inhibition at 10 µM (OVCAR-5) [%] | inhibition at 10 µM (OVCAR-8) [%] | inhibition at 10 µM (SK-OV-3) [%] | inhibition at 10 µM (BT-549) [%] | inhibition at 10 µM (HS 578T) [%] | inhibition at 10 µM (MCF-7) [%] | inhibition at 10 µM (MDA-MB-231/ATCC) [%] | inhibition at 10 µM (MDA-MB-468) [%] | inhibition at 10 µM (T-47D) [%] | inhibition at 10 µM (NCI/ADR-RES) [%] | melting point [°C]
COc1ccc(-c2nn(-c3ccc(S(N)(=O)=O)cc3)cc2C(=O)OCC(=O)Nc2ccc(S(N)(=O)=O)cc2)cc1 [Compound 4c, 2-Oxo-2-[(4-sulfamoylphenyl)amino] ethyl 3-(4-methoxyphenyl)-1-(4-sulfamoylphenyl)-1H-pyrazole-4-carboxylate] | < 5 | < 5 | < 5 | < 5 | < 5 | < 5 | < 5 | < 5 | 41.6 | < 5 | 8.77 | < 5 | < 5 | < 5 |  | 
CS(=O)(=O)c1ccc(-c2nn(-c3ccc(S(N)(=O)=O)cc3)cc2C(=O)OCC(=O)Nc2ccc(S(N)(=O)=O)cc2)cc1 [Compound 4e, 2-Oxo-2-[(4-sulfamoylphenyl)amino] ethyl 3-(4-(methylsulfonyl)phenyl)-1-(4-sulfamoylphenyl)-1H-pyrazole-4-carboxylate] | < 5 | < 5 | < 5 | < 5 | < 5 | < 5 | < 5 | < 5 | < 5 | < 5 | < 5 | < 5 | < 5 | < 5 | < 5 | 132 to 135
CCOC(=O)c1ccc(NC(=O)COC(=O)c2cn(-c3ccc(S(N)(=O)=O)cc3)nc2-c2ccc(OC)cc2)cc1 [Compound 5c, 2-[(4-(Ethoxycarbonyl)phenyl)amino]-2-oxoethyl 3-(4-methoxyphenyl)-1-(4-sulfamoylphenyl)-1H-pyrazole-4-carboxylate] | 21.3 | 27.3 | < 5 | 23.2 | 42.5 | 13.7 | 5.25 | 11.6 | 21.5 | 31.3 | 48.8 | 18.8 | 40 | 46.2 | < 5 | 121 to 124
CCOC(=O)c1ccc(NC(=O)COC(=O)c2cn(-c3ccc(S(N)(=O)=O)cc3)nc2-c2ccc(Br)cc2)cc1 [Compound 5d, 2-[(4-(Ethoxycarbonyl)phenyl)amino]-2-oxoethyl 3-(4-bromophenyl)-1-(4-sulfamoylphenyl)-1H-pyrazole-4-carboxylate] | 72.9 | 61.2 | 31.7 | 62.6 | 64 | 38 | 13.3 | 29 | 36.6 | 51.3 | 91 | 43.7 | 67.6 | 60.2 | 28.2 | 
CCOC(=O)c1ccc(NC(=O)COC(=O)c2cn(-c3ccc(S(N)(=O)=O)cc3)nc2-c2ccc(S(C)(=O)=O)cc2)cc1 [Compound 5e, 2-[(4-(Ethoxycarbonyl)phenyl)amino]-2-oxoethyl 3-(4-(methylsulfonyl)phenyl)-1-(4-sulfamoylphenyl)-1H-pyrazole-4-carboxylate] | 11.6 | < 5 | < 5 | < 5 | 12.3 | 7.15 | < 5 | < 5 | 18.9 | 23.7 | 6.56 | < 5 | 20.3 | 19.1 | < 5 | 127 to 130
NS(=O)(=O)c1ccc(-n2cc(C(=O)OCC(=O)Nc3nnc(S(N)(=O)=O)s3)c(-c3ccccc3)n2)cc1 [Compound 6a, 2-Oxo-2-[(5-sulfamoyl-1,3,4-thiadiazol-2-yl)amino] ethyl 3-phenyl-1-(4-sulfamoylphenyl)-1H-pyrazole-4-carboxylate] | 8.67 | < 5 | < 5 | < 5 | < 5 | < 5 | < 5 | 54.6 | < 5 | 5.52 | 22.6 | 9.95 | < 5 | < 5 | < 5 | 135 to 137
Cc1ccc(-c2nn(-c3ccc(S(N)(=O)=O)cc3)cc2C(=O)OCC(=O)Nc2nnc(S(N)(=O)=O)s2)cc1 [Compound 6b, 2-Oxo-2-[(5-sulfamoyl-1,3,4-thiadiazol-2-yl)amino] ethyl 1-(4-sulfamoylphenyl)-3-(p-tolyl)-1H-pyrazole-4-carboxylate] | 12.1 | 5.8 | < 5 | < 5 | 16 | < 5 | < 5 | < 5 | < 5 | < 5 | < 5 | 8.63 | < 5 | < 5 | < 5 | 115 to 120
COc1ccc(-c2nn(-c3ccc(S(N)(=O)=O)cc3)cc2C(=O)OCC(=O)Nc2nnc(S(N)(=O)=O)s2)cc1 [Compound 6c, 2-Oxo-2-[(5-sulfamoyl-1,3,4-thiadiazol-2-yl)amino] ethyl 3-(4-methoxyphenyl)-1-(4-sulfamoylphenyl)-1H-pyrazole-4-carboxylate] | 8.56 | < 5 | < 5 | < 5 | < 5 | < 5 | < 5 | < 5 | < 5 | 12.8 | 15.8 | < 5 | 7.76 | < 5 | < 5 | 240 to 241
NC(=S)NNC(=O)c1cn(-c2ccc(S(N)(=O)=O)cc2)nc1-c1ccccc1 [Compound 9a, 2-[3-Phenyl-1-(4-sulfamoylphenyl)-1H-pyrazole-4-carbonyl] hydrazine-1-carbothioamide] | < 5 | < 5 | < 5 | < 5 | < 5 | < 5 | < 5 | < 5 | < 5 | < 5 | < 5 | < 5 | < 5 | < 5 | < 5 | 180 to 181
Cc1ccc(-c2nn(-c3ccc(S(N)(=O)=O)cc3)cc2C(=O)NNC(N)=S)cc1 [Compound 9b, 2-[1-(4-Sulfamoylphenyl)-3-(p-tolyl)-1H-pyrazole-4-carbonyl] hydrazine-1-carbothioamide] | < 5 | < 5 | < 5 | < 5 | < 5 | < 5 | < 5 | < 5 | < 5 | < 5 | < 5 | < 5 | < 5 | < 5 | < 5 | 178 to 180
NC(=S)NNC(=O)c1cn(-c2ccc(S(N)(=O)=O)cc2)nc1-c1ccc(Br)cc1 [Compound 9d, 2-[3-(4-Bromophenyl)-1-(4-sulfamoylphenyl)-1H-pyrazole-4-carbonyl] hydrazine-1-carbothioamide] | < 5 | < 5 | 20.2 | < 5 | < 5 | < 5 | < 5 | < 5 | < 5 | 6.72 | < 5 | < 5 | < 5 | 7.04 | < 5 | 238 to 241

Source: publication PMC12454493, “Insight on novel sulfamoylphenyl pyrazole derivatives as anticancer carbonic anhydrase inhibitors” (Molecular Diversity, 2024)
